Data: US20220017501A1, “MICROBIOCIDAL THIAZOLE DERIVATIVES” (SYNGENTA PARTICIPATIONS AG, priority 2018, published 2022)

Tests used:
[1] = system: Magnaporthe grisea (Pyricularia oryzae); test: whole plant or invertebrate; type: in vivo; settings: foliar, read-out: control of Magnaporthe grisea
[2] = system: Monographella nivalis (Microdochium nivale); test: Monographella nivalis (Microdochium nivale) / liquid culture (foot rot cereals); type: cell-based; settings: growth inhibition photometrically 4-5 days after application, read-out: control of Monographella nivalis
Description: Example B7: Monographella Nivalis (Microdochium Nivale)/Liquid Culture (Foot Rot Cereals) Conidia of the fungus from cryogenic storage are directly mixed into nutrient broth (PDB potato dextrose broth). After placing a (DMSO) solution of test compound into a microtiter plate (96-well format), the nutrient broth containing the fungal spores is added. The test plates are incubated at 24° C. and the inhibition of growth is determined photometrically 4-5 days after application. […] […].23.

[3] = system: Blumeria graminis f. sp. tritici (Erysiphe graminis f. sp. tritici); test: Blumeria graminis f. sp. tritici / wheat / leaf disc preventative (powdery mildew on wheat); type: in vivo; settings: foliar, wheat leaf segments, compared to untreated control
Description: Example B4: Blumeria Graminis f. sp. Tritici (Erysiphe Graminis f. sp. Tritici)/Wheat/Leaf Disc Preventative (Powdery Mildew on Wheat) Wheat leaf segments cv. Kanzler are placed on agar in a multiwell plate (24-well format) and sprayed with the formulated test compound diluted in water. The leaf disks are inoculated by shaking powdery mildew infected plants above the test plates 1 day after application. The inoculated leaf disks are incubated at 20° C. and 60% rh under a light regime of 24 h darkness followed by 12 h light/12 h darkness in a climate chamber and the activity of a compound is assessed as percent disease control compared to untreated when an appropriate level of disease damage appears on untreated check leaf segments (6-8 days after application). […].23.

[4] = system: Mycosphaerella arachidis (Cercospora arachidicola); test: Mycosphaerella arachidis (Cercospora arachidicola) / liquid culture (early leaf spot); type: cell-based; settings: growth inhibition photometrically 4-5 days after application, read-out: control of Mycosphaerella arachidis
Description: Example B8: Mycosphaerella Arachidis (Cercospora Arachidicola)/Liquid Culture (Early Leaf Spot) Conidia of the fungus from cryogenic storage are directly mixed into nutrient broth (PDB potato dextrose broth). After placing a (DMSO) solution of test compound into a microtiter plate (96-well format), the nutrient broth containing the fungal spores is added. The test plates are incubated at 24° C. and the inhibition of growth is determined photometrically 4-5 days after application. […] […].23.

[5] = system: Mycosphaerella graminicola (Septoria tritici); test: Mycosphaerella graminicola (Septoria tritici) / liquid culture (Septoria blotch); type: cell-based; settings: Zymoseptoria tritici, growth inhibition photometrically 4-5 days after application, read-out: control of Mycosphaerella graminicola
Description: Example B16: Mycosphaerella Graminicola (Septoria Tritici)/Liquid Culture (Septoria Blotch) Conidia of the fungus from cryogenic storage are directly mixed into nutrient broth (PDB potato dextrose broth). After placing a (DMSO) solution of test compound into a microtiter plate (96-well format), the nutrient broth containing the fungal spores is added. The test plates are incubated at 24° C. and the inhibition of growth is determined photometrically 4-5 days after application. […] […].23.

[6] = system: Glomerella lagenarium (Colletotrichum lagenarium); test: Glomerella lagenarium (Colletotrichum lagenarium) / liquid culture (anthracnose); type: cell-based; settings: Colletotrichum orbiculare, growth inhibition photometrically 3-4 days after application, read-out: control of Glomerella lagenarium
Description: Example B3: Glomerella Lagenarium (Colletotrichum Lagenarium)/Liquid Culture (Anthracnose) Conidia of the fungus from cryogenic storage are directly mixed into nutrient broth (PDB potato dextrose broth). After placing a (DMSO) solution of test compound into a microtiter plate (96-well format), the nutrient broth containing the fungal spores is added. The test plates are incubated at 24° C. and the inhibition of growth is measured photometrically 3-4 days after application.

Pyrenophora teres = Pyrenophora teres / barley / leaf disc preventative (net blotch); type: in vivo; settings: foliar, barley leaf segments, compared to untreated control
Description: Example B14: Pyrenophora Teres/Barley/Leaf Disc Preventative (Net Blotch) Barley leaf segments cv. Hasso are placed on agar in a multiwell plate (24-well format) and sprayed with the formulated test compound diluted in water. The leaf […] inoculated with a spore suspension of the fungus 2 days after application. The inoculated leaf segments are incubated at 20° C. and 65% rh under a light regime of 12 h light/12 h darkness in a climate cabinet and the activity of a compound is assessed as disease control compared to untreated when an appropriate level of disease damage appears in untreated check leaf segments (5-7 days after application). […] […].23.

Cc1sc(N(C#N)c2cc(F)nc(F)c2)nc1C(=O)NCC1(CC2CC2)CC1 [I.f.23, 2-[cyano-(2,6-difluoro-4-pyridyl)amino]-N-[[1-(cyclopropylmethyl)cyclopropyl]methyl]-5-methyl-thiazole-4-carboxamide]
≥ 80%: pest or weed control at 200 ppm [1] | inhibition of growth at 20 ppm [2] | pest or weed control at 200 ppm [3] | inhibition of growth at 20 ppm [4] | inhibition of growth at 20 ppm [5] | inhibition of growth at 20 ppm [6]

CC1(C)CCC1NC(=O)c1nc(N(C#N)c2cc(F)nc(F)c2)sc1NC=O (centres unmarked) [I.b.25, 2-[cyano-(2,6-difluoro-4-pyridyl)amino]-N-(2,2-dimethylcyclobutyl)-5-formamido-thiazole-4-carboxamide]
≥ 80%: inhibition of growth at 20 ppm [2] | inhibition of growth at 20 ppm [5] | inhibition of growth at 20 ppm [6]

Cc1sc(N(C#N)c2cc(F)nc(F)c2)nc1C(=O)NCC(C)C [I.i.23, 2-[cyano-(2,6-difluoro-4-pyridyl)amino]-N-isobutyl-5-methyl-thiazole-4-carboxamide]
≥ 80%: pest or weed control at 200 ppm [1] | pest or weed control at 200 ppm (Pyrenophora teres) | inhibition of growth at 20 ppm [2] | pest or weed control at 200 ppm [3] | inhibition of growth at 20 ppm [5] | inhibition of growth at 20 ppm [6]

Cc1sc(N(C#N)c2cc(F)nc(F)c2)nc1C(=O)NC1CCC1 [I.a.23, 2-[cyano-(2,6-difluoro-4-pyridyl)amino]-N-cyclobutyl-5-methyl-thiazole-4-carboxamide]
≥ 80%: pest or weed control at 200 ppm [1] | pest or weed control at 200 ppm (Pyrenophora teres) | inhibition of growth at 20 ppm [2] | pest or weed control at 200 ppm [3] | inhibition of growth at 20 ppm [5]

Cc1sc(N(C#N)c2cc(F)nc(F)c2)nc1C(=O)NCc1ccccc1 [I.o.23, N-benzyl-2-[cyano-(2,6-difluoro-4-pyridyl)amino]-5-methyl-thiazole-4-carboxamide]
≥ 80%: pest or weed control at 200 ppm [1] | inhibition of growth at 20 ppm [2] | pest or weed control at 200 ppm [3] | inhibition of growth at 20 ppm [4] | inhibition of growth at 20 ppm [5] | inhibition of growth at 20 ppm [6]

Cc1sc(N(C#N)c2cc(F)nc(F)c2)nc1C(=O)NC1CCC12Cc1ccccc1C2 (centres unmarked) [I.d.23, 2-[cyano-(2,6-difluoro-4-pyridyl)amino]-5-methyl-N-spiro[cyclobutane-2,2′-indane]-1-yl-thiazole-4-carboxamide]
≥ 80%: pest or weed control at 200 ppm [1] | pest or weed control at 200 ppm (Pyrenophora teres) | inhibition of growth at 20 ppm [2] | pest or weed control at 200 ppm [3] | inhibition of growth at 20 ppm [4] | inhibition of growth at 20 ppm [5] | inhibition of growth at 20 ppm [6]

Cc1sc(N(C#N)c2cc(F)nc(F)c2)nc1C(=O)NC1CCC12CCC2 (centres unmarked) [I.e.23, 2-[cyano-(2,6-difluoro-4-pyridyl)amino]-5-methyl-N-spiro[3.3]heptan-3-yl-thiazole-4-carboxamide]
≥ 80%: pest or weed control at 200 ppm [1] | inhibition of growth at 20 ppm [2] | pest or weed control at 200 ppm [3] | inhibition of growth at 20 ppm [4] | inhibition of growth at 20 ppm [5] | inhibition of growth at 20 ppm [6]

CCCCNC(=O)c1nc(N(C#N)c2cc(F)nc(F)c2)sc1C [I.p.23, N-butyl-2-[cyano-(2,6-difluoro-4-pyridyl)amino]-5-methyl-thiazole-4-carboxamide]
≥ 80%: pest or weed control at 200 ppm [1] | pest or weed control at 200 ppm (Pyrenophora teres) | inhibition of growth at 20 ppm [2] | pest or weed control at 200 ppm [3] | inhibition of growth at 20 ppm [4] | inhibition of growth at 20 ppm [5] | inhibition of growth at 20 ppm [6]

Cc1sc(N(C#N)c2cc(F)cc(F)c2)nc1C(=O)NC1CCC1(C)C (centres unmarked) [I.b.08, 2-(N-cyano-3,5-difluoro-anilino)-N-(2,2-dimethylcyclobutyl)-5-methyl-thiazole-4-carboxamide]
≥ 80%: pest or weed control at 200 ppm [1] | inhibition of growth at 20 ppm [2] | pest or weed control at 200 ppm [3] | inhibition of growth at 20 ppm [4] | inhibition of growth at 20 ppm [5] | inhibition of growth at 20 ppm [6]

Cc1sc(N(C#N)c2cc(F)nc(F)c2)nc1C(=O)NCC(C)(C)C [I.k.23, 2-[cyano-(2,6-difluoro-4-pyridyl)amino]-N-(2,2-dimethylpropyl)-5-methyl-thiazole-4-carboxamide]
≥ 80%: pest or weed control at 200 ppm [1] | pest or weed control at 200 ppm (Pyrenophora teres) | inhibition of growth at 20 ppm [2] | pest or weed control at 200 ppm [3] | inhibition of growth at 20 ppm [4] | inhibition of growth at 20 ppm [5] | inhibition of growth at 20 ppm [6]

CCCCCCNC(=O)c1nc(N(C#N)c2cc(F)nc(F)c2)sc1C [I.h.23, 2-[cyano-(2,6-difluoro-4-pyridyl)amino]-N-hexyl-5-methyl-thiazole-4-carboxamide]
≥ 80%: pest or weed control at 200 ppm [1] | inhibition of growth at 20 ppm [2] | pest or weed control at 200 ppm [3] | inhibition of growth at 20 ppm [4] | inhibition of growth at 20 ppm [5] | inhibition of growth at 20 ppm [6]

Cc1sc(N(C#N)c2cc(F)cc(F)c2)nc1C(=O)NC1(C)CCCC1 [I.g.08, 2-(N-cyano-3,5-difluoro-anilino)-5-methyl-N-(1-methylcyclopentyl)thiazole-4-carboxamide]
≥ 80%: pest or weed control at 200 ppm [1] | inhibition of growth at 20 ppm [2] | pest or weed control at 200 ppm [3] | inhibition of growth at 20 ppm [4] | inhibition of growth at 20 ppm [6]

CCCCCNC(=O)c1nc(N(C#N)c2cc(F)nc(F)c2)sc1C [I.l.23, 2-[cyano-(2,6-difluoro-4-pyridyl)amino]-5-methyl-N-pentyl-thiazole-4-carboxamide]
≥ 80%: pest or weed control at 200 ppm [1] | inhibition of growth at 20 ppm [2] | pest or weed control at 200 ppm [3] | inhibition of growth at 20 ppm [4] | inhibition of growth at 20 ppm [5]

Cc1sc(N(C#N)c2cc(F)nc(F)c2)nc1C(=O)NC(C)c1ccccc1 (centres unmarked) [I.j.23, 2-[cyano-(2,6-difluoro-4-pyridyl)amino]-5-methyl-N-(1-phenylethyl)thiazole-4-carboxamide]
≥ 80%: pest or weed control at 200 ppm [1] | inhibition of growth at 20 ppm [2] | pest or weed control at 200 ppm [3] | inhibition of growth at 20 ppm [5] | inhibition of growth at 20 ppm [6]
